Data reported in patent publication US9434686B2, “Deacetylase inhibitors and uses thereof” (President and Fellows of Harvard College, priority 2008, dated 2016).

How the values were obtained:
HDAC6 = molecular target: T1, HDAC6 (Homo sapiens, UniProt Q9UBN7); assay: HDAC biochemical (homogeneous) assay, inhibitory constants
T1 construct: endogenous in cells
T1 sequence (Q9UBN7 1-1215): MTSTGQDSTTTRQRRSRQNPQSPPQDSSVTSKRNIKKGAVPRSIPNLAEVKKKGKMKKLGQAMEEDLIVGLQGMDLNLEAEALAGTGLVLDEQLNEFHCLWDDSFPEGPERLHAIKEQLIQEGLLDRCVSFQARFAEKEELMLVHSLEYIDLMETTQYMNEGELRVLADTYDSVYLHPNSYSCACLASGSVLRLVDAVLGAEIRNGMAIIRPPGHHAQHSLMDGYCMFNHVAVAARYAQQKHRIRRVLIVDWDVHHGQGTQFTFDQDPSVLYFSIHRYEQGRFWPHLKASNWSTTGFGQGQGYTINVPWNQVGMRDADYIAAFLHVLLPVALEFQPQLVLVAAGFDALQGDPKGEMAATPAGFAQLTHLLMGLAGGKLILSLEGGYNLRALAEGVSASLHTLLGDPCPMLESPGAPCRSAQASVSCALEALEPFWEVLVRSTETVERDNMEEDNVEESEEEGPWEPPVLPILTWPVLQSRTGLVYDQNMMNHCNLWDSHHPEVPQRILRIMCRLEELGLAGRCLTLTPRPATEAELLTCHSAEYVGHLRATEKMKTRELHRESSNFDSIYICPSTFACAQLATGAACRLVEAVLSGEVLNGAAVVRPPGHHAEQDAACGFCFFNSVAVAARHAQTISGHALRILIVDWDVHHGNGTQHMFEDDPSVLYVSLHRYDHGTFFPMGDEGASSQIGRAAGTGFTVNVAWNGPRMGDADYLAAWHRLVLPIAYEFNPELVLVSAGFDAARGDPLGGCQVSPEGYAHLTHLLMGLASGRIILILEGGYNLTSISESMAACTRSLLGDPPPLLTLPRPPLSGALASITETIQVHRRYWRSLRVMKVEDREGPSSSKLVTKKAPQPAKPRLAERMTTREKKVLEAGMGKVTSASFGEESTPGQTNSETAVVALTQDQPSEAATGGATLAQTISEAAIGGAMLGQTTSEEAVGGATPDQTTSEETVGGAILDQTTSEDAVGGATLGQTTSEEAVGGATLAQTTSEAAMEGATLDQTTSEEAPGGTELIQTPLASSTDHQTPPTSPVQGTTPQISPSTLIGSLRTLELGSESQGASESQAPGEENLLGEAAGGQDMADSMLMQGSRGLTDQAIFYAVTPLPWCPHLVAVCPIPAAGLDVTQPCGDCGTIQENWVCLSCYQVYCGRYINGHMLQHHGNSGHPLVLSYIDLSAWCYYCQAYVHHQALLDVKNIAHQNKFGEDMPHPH
Description: FIG. 5. HDAC Biochemical Assay Schema. 7-amino-4-methylcoumarin (7AMC) is linked by an amide bond to acetylated lysine in the context of an isoform-selective substate. Pictured here is a derived substrate for HDACs 1, 2, 3, and 6. HDAC hydrolyzes acetylated lysine, which is then a substrate for rapid trypsin digestion releasing 7AMC (shown in green) which is detected in real time by a fluorescence plate reader. Linear data captured after a pre-incubation phase (30 minutes) provides a kinetic assessment of deacetylase activity.
FIG. 6. […] Robust assay for HDACs 1, 2, 3, 5, 6, and 8 have been established.

[1] = test system: human multiple myeloma cells; assay: Cell proliferation (Cell TiterGlo) synergy of HDAC inhibitor with bortezomib; assay type: cell-based; details: two cultures of human multiple myeloma cells, bortezomib 0, 2.5 nM, 5.0 nM
Description: FIG. 7. […] Synergistic effects on cell proliferation were determined by varying concentrations of each HDAC inhibitor in the presence of varied concentrations of the proteasome inhibitor, bortezomib. Two cultures of human multiple myeloma cells were used for this study. Data presented are the IC50 data for the HDAC inhibitor studied (first column) in the presence of increasing concentrations of bortezomib (0, 2.5 nM, or 5.0 nM). The measurement of cell proliferation used is the Cell TiterGlo assay (Promega), which uses bioluminescence to report on ATP content in cultured cells.

O=C(CCCCCCC(=O)N/N=C/c1ccc(N(c2ccccc2)c2ccccc2)cc1)NO [WT-161]
Inhibitory constant (Ki) for HDAC6, in words (HDAC6): Potent inhibition of HDAC6 | Selectivity among HDACs 1, 2, 3, 5, 6, 8, in words (HDAC6): Selective Inhibition of HDAC6 | Synergy with bortezomib on cell proliferation [1]: most pronounced synergy
